Experimental data as given in US10626112B2, “Heterocyclic sulfonamide derivative and medicine comprising same” (EA PHARMA CO., LTD., priority 2014, dated 2020).
pIC50: −log10 of the molar value.

Target: human TRPA1 (Homo sapiens (Human), UniProt O75762)
Experiment: Measurement of TRPA1 antagonist activity (1): intracellular calcium increase
Assay type: cell-based
Settings: 293T cells transfected with human TRPA1 expression plasmid; allylisothiocyanate 20 μM stimulation; intracellular calcium fluorescence; read-out: hTRPA1 IC50
Text: Measurement of TRPA1 Antagonist Activity (1)
Human TRPA1 Expression Plasmid
As cDNA encoding human TRPA1 (GenBank accession No. […]), a commercially available product was purchased (manufactured by Kazusa DNA Research Institute, clone No.: pFN21AB7348, item No.: FHC07217). Using this as a template, full-length human TRPA1 gene was amplified using the primer sequences shown below, by reaction using DNA polymerase (manufactured by Stratagene, trade name: PfuUltra High-Fidelity DNA Polymerase).
A recognition site (underlined) of restriction enzyme HindIII was added to the 5′ side, and XbaI site (underlined) was added to the 3′ side, and GTT of the template sequence was changed to termination codon TAG (bold). The obtained double stranded DNA was enzyme-digested with HindIII and XbaI, and introduced into the multicloning site of expression plasmid pcDNA3.1/zeo(+) (manufactured by Invitrogen) to construct a human TRPA1 expression plasmid.
Human embryonic kidney-derived 293T cells were cultured in Dulbecco's Modified Eagle Medium containing 10% fetal bovine serum, 10 unit penicillin, and 10 μg streptomycin, plated on a petri dish having a diameter of 10 cm at 3×10^6 cells, and cultured for 24 hr in a CO2 incubator. A reduced serum medium (manufactured by Invitrogen, trade name: OPTI-MEM, 600 μL), a gene transfer reagent (manufactured by Mirus Bio, trade name: Mirus TransIT-293, 18 μL), and human TRPA1 expression plasmid (6 μg) were mixed, the total amount of the mixture was added to the cells on the petri dish to allow for gene transfer. The cells were recovered about for 8 hr later, plated on a poly-D-lysine coated 384 well black/clear bottom plate at 12,000 cells/well, and cultured overnight.
Measurement of Intracellular Calcium Increase
The 384 well plate was recovered, and the medium was removed. A calcium-bonded fluorescent indicator (manufactured by Molecular Device, trade name: Calcium4 Assay Kit, 38 μL) dissolved in assay buffer (1×HBSS, 20 mM HEPES, pH 7.2) was added, and the cells were stained in a CO2 incubator for 1 hr. The cells were taken out at room temperature, stood for not less than 15 min, a test substance (10 μL) was added by a platereader FDSS7000 (Hamamatsu Photonics K.K.) equipped with a 384ch dispenser. After 10 min, allylisothiocyanate (12 μL) was further added at a final concentration of 20 μM, and changes in the relative fluorescence intensity after addition of allylisothiocyanate were measured for 5 min.
Test Substance Preparation
The test substance was dissolved in dimethyl sulfoxide and serially diluted with an assay buffer containing 0.1% bovine serum albumin (1×HBSS, 20 mM HEPES, pH 7.2) to a 4.8-fold concentration of the evaluation concentration. Allylisothiocyanate, which is a known TRPA1 activator, was dissolved in dimethyl sulfoxide to 100 mM, and further diluted 5-fold (100 μM) of the final concentration, like the test substance.
Calculation of Antagonist Activity
Under the test substance-free conditions, the maximum variation range of the fluorescence intensity before and after allylisothiocyanate stimulation was defined to be 100% activity rate, and the variation range before and after buffer stimulation was defined as 0% activity rate. The activity rate on addition of the test substance was determined, and the numerical value obtained by subtracting the activity rate from 100 was defined to be an inhibitory rate. IC50, which is the concentration of the test substance necessary for reaching the 50% inhibitory rate, was calculated from the sigmoid approximate curve by a spreadsheet software Excel-Fit.

Chain of human TRPA1 (O75762 whole entry): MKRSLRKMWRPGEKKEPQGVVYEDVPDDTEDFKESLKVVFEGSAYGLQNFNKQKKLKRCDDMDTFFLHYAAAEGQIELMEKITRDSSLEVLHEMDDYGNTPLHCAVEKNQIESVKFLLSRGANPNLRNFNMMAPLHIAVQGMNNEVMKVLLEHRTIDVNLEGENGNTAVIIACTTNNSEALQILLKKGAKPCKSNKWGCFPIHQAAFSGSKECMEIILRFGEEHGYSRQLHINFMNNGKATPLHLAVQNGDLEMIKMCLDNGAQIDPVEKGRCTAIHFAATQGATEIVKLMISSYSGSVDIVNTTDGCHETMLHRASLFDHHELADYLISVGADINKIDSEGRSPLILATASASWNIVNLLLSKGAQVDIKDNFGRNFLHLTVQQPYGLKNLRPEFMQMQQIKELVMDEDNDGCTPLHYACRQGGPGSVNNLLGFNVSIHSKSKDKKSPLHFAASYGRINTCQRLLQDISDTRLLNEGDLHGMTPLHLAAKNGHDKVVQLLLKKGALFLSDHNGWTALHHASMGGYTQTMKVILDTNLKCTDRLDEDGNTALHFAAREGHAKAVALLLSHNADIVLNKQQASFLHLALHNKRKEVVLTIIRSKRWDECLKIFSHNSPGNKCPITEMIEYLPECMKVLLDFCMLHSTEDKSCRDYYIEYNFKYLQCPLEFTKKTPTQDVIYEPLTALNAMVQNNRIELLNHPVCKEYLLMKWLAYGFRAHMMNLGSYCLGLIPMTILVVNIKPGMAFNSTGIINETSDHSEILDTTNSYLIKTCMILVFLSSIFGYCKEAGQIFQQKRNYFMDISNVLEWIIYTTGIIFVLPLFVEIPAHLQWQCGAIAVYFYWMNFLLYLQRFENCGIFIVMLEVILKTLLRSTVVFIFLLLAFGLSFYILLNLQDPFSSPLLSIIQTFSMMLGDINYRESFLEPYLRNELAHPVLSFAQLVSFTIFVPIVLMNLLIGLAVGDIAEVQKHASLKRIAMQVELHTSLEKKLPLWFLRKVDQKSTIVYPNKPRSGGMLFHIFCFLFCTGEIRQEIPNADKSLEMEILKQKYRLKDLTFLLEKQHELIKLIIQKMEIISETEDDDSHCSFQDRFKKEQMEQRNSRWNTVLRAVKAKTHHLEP

Row | pIC50 | SMILES
1 | 7.96 | O=C(NCc1cccc(OCc2cccc(C(F)(F)F)n2)c1)[C@@H]1CCCN1S(=O)(=O)c1cc2cc(F)ccc2o1 [Example 25, (2S)-1-(5-fluorobenzofuran-2-yl)sulfonyl-N-[[3-[[6-(trifluoromethyl)-2-pyridyl]methoxy]phenyl]-methyl]pyrrolidine-2-carboxamide]
2 | 7.64 | CN(C)c1cccc(COc2cccc(CNC(=O)[C@@H]3CCCN3S(=O)(=O)c3cc4cc(F)ccc4o3)c2)n1 [Example 26, (2S)-N-[[3-[[6-(dimethylamino)-2-pyridyl]methoxy]phenyl]-methyl]-1-(5-fluorobenzofuran-2-yl)sulfonyl-pyrrolidine-2-carboxamide]
3 | 8.09 | O=C(NCc1cccc(OCc2cccc(CN3CCOCC3)c2)c1)[C@@H]1CCCN1S(=O)(=O)c1cc2cc(F)ccc2o1 [Example 27, (2S)-1-(5-fluorobenzofuran-2-yl)sulfonyl-N-[[3-[[3-(morpholinomethyl)phenyl]-methoxy]phenyl]methyl]-pyrrolidine-2-carboxamide]
4 | 7.25 | O=C(NCc1cccc(OCc2cccc(OCCN3CCOCC3)c2)c1)[C@@H]1CCCN1S(=O)(=O)c1cc2cc(F)ccc2o1 [Example 28, (2S)-1-(5-fluorobenzofuran-2-yl)sulfonyl-N-[[3-[[3-(2-morpholinoethoxy)phenyl]-methoxy]phenyl]methyl]-pyrrolidine-2-carboxamide]
5 | 8.08 | O=C(NCc1cccc(OCC2CCOCC2)c1)[C@@H]1CCCN1S(=O)(=O)c1cc2cc(F)ccc2o1 [Example 30, (2S)-1-(5-fluorobenzofuran-2-yl)sulfonyl-N-[[3-(tetrahydropyran-4-ylmethoxy)phenyl]-methyl]pyrrolidine-2-carboxamide]
6 | 8.37 | O=C(NCc1cccc(OCC2CCCOC2)c1)[C@@H]1CCCN1S(=O)(=O)c1cc2cc(F)ccc2o1 (stereo partly drawn) [Example 31, (2S)-1-(5-fluorobenzofuran-2-yl)sulfonyl-N-[[3-(tetrahydropyran-3-ylmethoxy)phenyl]-methyl]pyrrolidine-2-carboxamide]
7 | 7.51 | O=C(NCc1cccc(OCC2CCOC2)c1)[C@@H]1CCCN1S(=O)(=O)c1cc2cc(F)ccc2o1 (stereo partly drawn) [Example 32, (2S)-1-(5-fluorobenzofuran-2-yl)sulfonyl-N-[[3-(tetrahydrofuran-3-ylmethoxy)phenyl]-methyl]pyrrolidine-2-carboxamide]
8 | 6.80 | O=C(NCc1cccc(OC2CCOCC2)c1)[C@@H]1CCCN1S(=O)(=O)c1cc2cc(F)ccc2o1 [Example 33, (2S)-1-(5-fluorobenzofuran-2-yl)sulfonyl-N-[(3-tetrahydropyran-4-yloxyphenyl)methyl]-pyrrolidine-2-carboxamide]
9 | 8.80 | O=C(NCc1cc(F)cc(OCc2ccccc2)c1)[C@@H]1CCCN1S(=O)(=O)c1cc2cc(F)ccc2o1 [Example 34, (2S)-N-[(3-benzyloxy-5-fluoro-phenyl)methyl]-1-(5-fluorobenzofuran-2-yl)sulfonyl-pyrrolidine-2-carboxamide]
10 | 8.10 | O=C(NCc1cc(F)cc(OCc2ccncc2)c1)[C@@H]1CCCN1S(=O)(=O)c1cc2cc(F)ccc2o1 [Example 35, (2S)-1-(5-fluorobenzofuran-2-yl)sulfonyl-N-[[3-fluoro-5-(4-pyridylmethoxy)-phenyl]methyl]-pyrrolidine-2-carboxamide]
11 | 8.82 | N#Cc1ccc(COc2cc(F)cc(CNC(=O)[C@@H]3CCCN3S(=O)(=O)c3cc4cc(F)ccc4o3)c2)cc1 [Example 36, (2S)-N-[[3-[(4-cyanophenyl)methoxy]-5-fluoro-phenyl]methyl]-1-(5-fluorobenzofuran-2-yl)sulfonyl-pyrrolidine-2-carboxamide]
12 | 7.85 | O=C(NCc1cccc(OCc2ccccc2)c1)[C@@H]1CCCN1S(=O)(=O)c1cc2ccccc2o1 [Example 37, (2S)-1-(benzofuran-2-ylsulfonyl)-N-[(3-benzyloxyphenyl)methyl]pyrrolidine-2-carboxamide]
13 | 8.04 | O=C(NCc1cccc(OCc2ccc(C(F)(F)F)cc2)c1)[C@@H]1CCCN1S(=O)(=O)c1cc2ccccc2o1 [Example 38, (2S)-1-(benzofuran-2-ylsulfonyl)-N-[[3-[[4-(trifluoromethyl)phenyl]methoxy]-phenyl]methyl]pyrrolidine-2-carboxamide]
14 | 6.72 | O=C(NCc1cccc(OCc2ccc(C(F)(F)F)cc2)c1)[C@@H]1CCCN1S(=O)(=O)c1cc2cccc(F)c2o1 [Example 39, (2S)-1-(7-fluorobenzofuran-2-yl)sulfonyl-N-[[3-[[4-(trifluoromethyl)phenyl]methoxy]-phenyl]methyl]pyrrolidine-2-carboxamide]
15 | 7.02 | O=C(NCc1cccc(OCc2ccc(C(F)(F)F)cc2)c1)[C@@H]1CCCN1S(=O)(=O)c1cc2ccc(F)cc2o1 [Example 40, (2S)-1-(6-fluorobenzofuran-2-yl)sulfonyl-N-[[3-[[4-(trifluoromethyl)phenyl]methoxy]-phenyl]methyl]pyrrolidine-2-carboxamide]
16 | 8.15 | O=C(NCc1cccc(OCc2ccc(C(F)(F)F)cc2)c1)[C@@H]1CCCN1S(=O)(=O)c1cc2c(F)cccc2o1 [Example 42, (2S)-1-(4-fluorobenzofuran-2-yl)sulfonyl-N-[[3-[[4-(trifluoromethyl)phenyl]methoxy]-phenyl]methyl]pyrrolidine-2-carboxamide]
17 | 8.80 | O=C(NCc1cccc(OCc2ccccc2)c1)[C@@H]1CCCN1S(=O)(=O)c1cc2cc(F)ccc2o1 [Example 43, (2S)-N-[(3-benzyloxyphenyl)methyl]-1-(5-fluorobenzofuran-2-yl)sulfonyl-pyrrolidine-2-carboxamide]
18 | 8.77 | O=C(NCc1cccc(OCc2ccc(C(F)(F)F)cc2)c1)[C@@H]1C=CCN1S(=O)(=O)c1cc2ccccc2o1 [Example 44, (2S)-1-(benzofuran-2-ylsulfonyl)-N-[[3-[[4-(trifluoromethyl)phenyl]methoxy]-phenyl]methyl]-2,5-dihydropyrrole-2-carboxamide]
19 | 7.46 | O=C(NCc1cccc(OCc2ccc(C(F)(F)F)cc2)c1)[C@@H]1[C@@H](O)CCN1S(=O)(=O)c1cc2ccccc2o1 [Example 45, (2S,3S)-1-(benzofuran-2-ylsulfonyl)-3-hydroxy-N-[[3-[[4-(trifluoromethyl)phenyl]methoxy]-phenyl]methyl]pyrrolidine-2-carboxamide]
20 | 6.89 | O=C(NCc1cccc(OCc2ccc(C(F)(F)F)cc2)c1)[C@@H]1C[C@@H](O)CN1S(=O)(=O)c1cc2ccccc2o1 [Example 46, (2S,4R)-1-(benzofuran-2-ylsulfonyl)-4-hydroxy-N-[[3-[[4-(trifluoromethyl)phenyl]methoxy]-phenyl]methyl]pyrrolidine-2-carboxamide]
21 | 7.62 | O=C(NCc1cccc(OCc2ccc(C(F)(F)F)cc2)c1)[C@@H]1CC(F)(F)CN1S(=O)(=O)c1cc2ccccc2o1 [Example 47, (2S)-1-(benzofuran-2-ylsulfonyl)-4,4-difluoro-N-[[3-[[4-(trifluoromethyl)phenyl]methoxy]-phenyl]methyl]pyrrolidine-2-carboxamide]
22 | 8.16 | O=C(NCc1cccc(OCc2ccc(C(F)(F)F)cc2)c1)[C@@H]1CCN1S(=O)(=O)c1cc2ccccc2o1 [Example 48, (2S)-1-(benzofuran-2-ylsulfonyl)-N-[[3-[[4-(trifluoromethyl)phenyl]methoxy]-phenyl]methyl]azetidine-2-carboxamide]
23 | 7.74 | C[C@H](NS(=O)(=O)c1cc2cc(F)ccc2o1)C(=O)NCc1cccc(OCc2ccc(C(F)(F)F)cc2)c1 [Example 49, (2S)-2-[(5-fluorobenzofuran-2-yl)sulfonylamino]-N-[[3-[[4-(trifluoromethyl)phenyl]methoxy]-phenyl]methyl]propanamide]

Row | SMILES | pIC50
24 | COC(=O)C(Oc1cccc(CNC(=O)[C@@H]2CCCN2S(=O)(=O)c2cc3cc(F)ccc3o2)c1)c1ccccc1 (stereo partly drawn) [Example 29, methyl 2-[3-[[[(2S)-1-(5-fluorobenzofuran-2-yl)sulfonylpyrrolinidine-2-carbonyl]amino]methyl]-phenoxy]-2-phenylacetate] | 6.47
